# Data published in patent US5612317A, “Method for delivering estrogen” (priority 1994, dated 1997).
# Columns and labels:
# [1] = injected into normal women; cited from earlier work
# [2] = Circulating concentration of 17β-estradiol and estrone in ovariectomized rats after daily oral dosing for two weeks (radioimmunoassay); format: in vivo; conditions: six ovariectomized rats per group
# Method: De-conjugation of estradiol-3-(β-glucoside) to estradiol will occur slowly in peripheral tissues, and therefore, will maintain circulating levels of estradiol at a more physiologic level for a longer period of time. A study in humans with the vitamin D-3β-glucoside was conducted as a model compound. The blood level of vitamin D after an equimolar dose of vitamin D3 and vitamin D3 -3β-glucoside was compared. […] Thus, from this single dose vitamin D-glucoside study, there would not appear to be any hazard to the prolonged duration of action of the estradiol resulting from the slow de-conjugation of the estradiol-3-(β-glucoside). A study in ovariectomized rats was also conducted to determine the blood level of estradiol and estrone after receiving three different doses of either estradiol or estradiol-3-(β-glucoside) orally each day for two weeks. […] Thus, estradiol-3-(β-glucoside) will increase circulating concentrations of estradiol.
# In vivo rat studies were carried out where estradiol-3-(β-glucoside) was given orally for two weeks to ovariectomized rats.
# Circulating concentration of 17β-estradiol and estrone
# in six ovariectomized rats per group that received an oral
# dose of either 17β-estradiol or 17β-estradiol-3 β-
# glucoside (estradiol-glc) each day for two weeks.
# [3] = Side-effects and vaginal bleeding in ovariectomized rats dosed orally for two weeks; format: in vivo
# Excerpt: Based on the results in rats and humans with the model vitamin D-3β-glucoside and experience with giving estradiol-3-(β-glucoside) to ovariectomized rats, there is no indication of potential additive or multiplicative toxicity.
# estradiol receptor = conditions: "there is evidence"; no method given; cited from earlier work
# [4] = Incubation of 3H-vitamin D3-glucoside with rat intestinal homogenate, reverse phase HPLC; format: in vitro ADME; conditions: 3 hours at 37° C
# Method: FIG. 1A and FIG. 1B depict reverse phase HPLC (2% H2 O/methanol, 1.5 ml/min) of ^3 H-vitamin D3 -glucoside before (FIG. 1A) and after (FIG. 1B) incubation with rat intestinal homogenate for 3 hours at 37° C.
# (§1) A study was conducted whereby ^3 H-vitamin D3 -3β-glucoside was incubated with intestine and kidney homogenates. […] Therefore, the same results for estradiol-3β-glucoside would be expected since vitamin D and estradiol are both fat soluble sterols.
# [5] = Incubation of 3H-vitamin D3-glucoside with rat kidney homogenate, reverse phase HPLC; format: in vitro ADME; conditions: 3 hours at 37° C
# Method: FIG. 1C depicts reverse phase HPLC (2% H2 O/methanol, 1.5 ml/min) of ^3 H-vitamin D3 -glucoside after incubation with rat kidney homogenate for 3 hours at 37° C.
# as §1
# [6] = listed as 3 H-vitamin D3 -glucoside
smiles,measurement,setting,value
C[C@]12CC[C@@H]3c4ccc(O)cc4CC[C@H]3[C@@H]1CC[C@@H]2OC1O[C@H](CO)[C@@H](O)[C@H](O)[C@H]1O (stereo partly drawn) [17β-estradiol-17-glucoside],Metabolite recovered in urine,[1],the 3-glucuronide derivatives of each compound were recovered in the urine
"C[C@]12CC[C@@H]3c4ccc(O)cc4CC[C@H]3[C@@H]1CC[C@@H]2O [estradiol, 17β-estradiol, reference compound]",Blood concentration of estradiol,"[2]; dose 1, each day for two weeks",3.5 ± 0.7 pg/mL
same,Blood concentration of estradiol,"[2]; dose 10, each day for two weeks",8.7 ± 2.1 pg/mL
same,Blood concentration of estradiol,"[2]; dose 15, each day for two weeks",46.8 ± 10.4 pg/mL
same,Untoward side-effects or vaginal bleeding,"[3]; oral, two weeks, ovariectomized rats",No untoward side-effects or vaginal bleeding was noted
"C[C@]12CC[C@@H]3c4ccc(O[C@@H]5O[C@H](CO)[C@@H](O)[C@H](O)[C@H]5O)cc4CC[C@H]3[C@@H]1CC[C@@H]2O [estradiol-glc, 17β-estradiol-3β-glucoside]",Untoward side-effects or vaginal bleeding,"[3]; rat, in vivo, po",No untoward side-effects or vaginal bleeding was noted
same,Interaction with the estradiol receptor,estradiol receptor,does not interact with the estradiol receptor
C=C1CC[C@H](O[C@@H]2O[C@H](CO)[C@@H](O)[C@H](O)[C@H]2O)C/C1=C/C=C1\CCC[C@]2(C)[C@@H]([C@H](C)CCCC(C)C)CC[C@@H]12 [vitamin D3 -3β-glucoside],Metabolism of the glucoside / formation of 3H-vitamin D3,[4],None of the vitamin D3 -3β-glucoside was metabolized in the intestinal homogenates
same,Metabolism of the glucoside / formation of 3H-vitamin D3,[4]; [6],No ^3 H-vitamin D3 was formed
same,De-conjugation of the glucoside / formation of 3H-vitamin D3,[5]; listed as 3 H-vitamin D3 -3β-glucoside,only the kidney homogenate was capable of removing the glucoside from vitamin D3
same,De-conjugation of the glucoside / formation of 3H-vitamin D3,[5]; [6],formation of ^3 H-vitamin D3
same,De-conjugation of the glucoside / formation of 3H-vitamin D3,[5]; listed as vitamin D-3β-glucoside,β-glucosidase(s) in the kidney are able to de-conjugate the β-glucoside from the vitamin D-3β-glucoside
C[C@]12CC[C@@H]3c4ccc(O)cc4CC[C@H]3[C@@H]1CC[C@H]2O[C@@H]1O[C@H](CO)[C@@H](O)[C@H](O)[C@H]1O [17α-estradiol-17-glucoside],Metabolite recovered in urine,[1],the 3-glucuronide derivatives of each compound were recovered in the urine
